Measurements published in ChEMBL document CHEMBL2157913, “Synthesis and evaluation of apoptosis induction of thienopyrimidine compounds on KRAS and BRAF mutated colorectal cancer cell lines” (Bioorg Med Chem, 2012).
The source made the active and inactive calls. The calls are words filed in the database; no cut-off is given here.

Experiments:
[1] = tested on: HeLa; assay: Induction of apoptosis in human HeLa cells expressing wild type KRAS and BRAF assessed as depolarization of mitochondrial membrane after 24 hrs by flow cytometry; assay type: functional, cell-based
[2] = tested on: HCT-116; assay: Induction of apoptosis in human HCT116 cells expressing KRAS mutant assessed as depolarization of mitochondrial membrane after 24 hrs by flow cytometry; assay type: functional, cell-based
[3] = tested on: HT-29; assay: Induction of apoptosis in human HT-29 cells expressing BRAF mutant assessed as activation of caspase-3 at 200 uM after 10 mins by flow cytometry relative to control; assay type: functional
[4] = tested on: HT-29; assay: Induction of apoptosis in human HT-29 cells expressing BRAF mutant assessed as cell death at 200 uM after 10 mins by flow cytometry; assay type: functional, cell-based
[5] = tested on: HT-29; assay: Induction of apoptosis in human HT-29 cells expressing BRAF mutant assessed as depolarization of mitochondrial membrane after 24 hrs by flow cytometry; assay type: functional, cell-based
[6] = Homo sapiens, HeLa, 24 h, read-out: IC50
[7] = Homo sapiens, HCT-116, 24 h, read-out: IC50
[8] = Homo sapiens, HT-29, 24 h, read-out: IC50

| Compound | IC50 [1, 6] | IC50 [2, 7] | fold change (FC) [3] | Activity [4] | IC50 [5, 8] | IC50 ([2]; hct-116) | IC50 ([5]; ht-29) | Activity [3] | IC50 ([1]; hela) |
| --- | --- | --- | --- | --- | --- | --- | --- | --- | --- |
| Cc1ccccc1Nc1ncnc2sc3ccccc3c12 | 129 µM | 101 µM | 10 | Active | 120 µM | – | – | – | – |
| COc1ccccc1CNc1ncnc2c1sc1ccccc12 | 129 µM | – | – | – | – | Not Active | Not Active | – | – |
| c1ccc(Nc2ncnc3sc4ccccc4c23)cc1 | > 130 µM | – | – | – | – | Not Active | Not Active | Active | – |
| COc1ccc(CNc2ncnc3c2sc2ccccc23)cc1 | 118 µM | – | – | – | – | Not Active | Not Active | – | – |
| COc1ccc(Nc2ncnc3sc4ccccc4c23)cc1 | 109 µM | 92 µM | 10 | Active | 117 µM | – | – | – | – |
| COc1ccccc1Nc1ncnc2sc3ccccc3c12 | > 130 µM | – | – | – | – | Not Active | Not Active | Active | – |
| c1ccc(CNc2ncnc3sc4ccccc4c23)cc1 | 113 µM | > 130 µM | – | – | 126 µM | – | – | – | – |
| c1ccc(CNc2ncnc3c2sc2ccccc23)cc1 | 105 µM | – | – | – | – | Not Active | Not Active | – | – |
| CN(C)c1ncnc2sc3ccccc3c12 | 102 µM | – | – | – | – | Not Active | Not Active | – | – |
| c1ccc(Nc2ncnc3c2sc2ccccc23)cc1 | – | – | – | – | – | Not Active | Not Active | – | Not Active |
| Cc1ccccc1Nc1ncnc2c1sc1ccccc12 | 77.7 µM | 121 µM | – | – | 127 µM | – | – | – | – |
| Cc1ccccc1CNc1ncnc2c1sc1ccccc12 | – | – | – | – | – | Not Active | Not Active | – | Not Active |
| Cc1ccccc1CNc1ncnc2sc3ccccc3c12 | > 130 µM | – | – | – | – | Not Active | Not Active | – | – |
